From patent EP4722207A1, “OXOISOINDOLINYL-SUBSTITUTED TETRAHYDROPYRIMIDINEDIONE DERIVATIVE AND USE THEREOF” (Gluetacs Therapeutics (Shanghai) Co., Ltd., priority 2023, dated 2024)

What was measured:
Type in all cases: cell-based
WEE1 = molecular target: T1, WEE1 (Homo sapiens, UniProt P30291+Q96SW2); assay: Western-blot assay, substrate protein degradation in hPBMCs: WEE1; settings: for WEE1 substrate protein remaining %: compounds at 50 nM and 500 nM, 24 hours; for substrate protein remaining % WEE1: 24 hours of compound treatment, 50 nM and 500 nM
T1 construct: effects of the compounds of the present disclosure on the expression of target proteins in cells; endogenous in cells; host or cells: human PBMCs (hPBMCs)
T1 sequence (P30291 whole entry): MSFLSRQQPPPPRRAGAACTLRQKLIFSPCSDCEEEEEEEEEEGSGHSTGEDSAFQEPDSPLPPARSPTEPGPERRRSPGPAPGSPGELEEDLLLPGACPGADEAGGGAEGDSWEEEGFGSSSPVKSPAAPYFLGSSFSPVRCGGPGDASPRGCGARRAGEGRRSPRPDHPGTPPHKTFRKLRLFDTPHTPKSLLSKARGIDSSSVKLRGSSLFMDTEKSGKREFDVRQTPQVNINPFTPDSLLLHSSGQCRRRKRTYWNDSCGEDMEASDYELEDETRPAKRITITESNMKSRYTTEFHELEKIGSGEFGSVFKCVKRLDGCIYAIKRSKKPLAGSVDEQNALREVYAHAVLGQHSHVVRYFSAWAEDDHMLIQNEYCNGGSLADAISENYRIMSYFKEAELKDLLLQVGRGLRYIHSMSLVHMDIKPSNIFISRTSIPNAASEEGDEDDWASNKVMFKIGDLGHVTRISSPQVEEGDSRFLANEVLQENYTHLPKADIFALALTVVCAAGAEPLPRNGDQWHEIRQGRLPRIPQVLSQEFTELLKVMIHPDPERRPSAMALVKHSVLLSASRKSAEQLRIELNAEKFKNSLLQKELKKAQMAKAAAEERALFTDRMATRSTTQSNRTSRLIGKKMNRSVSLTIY
T1 sequence (Q96SW2 whole entry): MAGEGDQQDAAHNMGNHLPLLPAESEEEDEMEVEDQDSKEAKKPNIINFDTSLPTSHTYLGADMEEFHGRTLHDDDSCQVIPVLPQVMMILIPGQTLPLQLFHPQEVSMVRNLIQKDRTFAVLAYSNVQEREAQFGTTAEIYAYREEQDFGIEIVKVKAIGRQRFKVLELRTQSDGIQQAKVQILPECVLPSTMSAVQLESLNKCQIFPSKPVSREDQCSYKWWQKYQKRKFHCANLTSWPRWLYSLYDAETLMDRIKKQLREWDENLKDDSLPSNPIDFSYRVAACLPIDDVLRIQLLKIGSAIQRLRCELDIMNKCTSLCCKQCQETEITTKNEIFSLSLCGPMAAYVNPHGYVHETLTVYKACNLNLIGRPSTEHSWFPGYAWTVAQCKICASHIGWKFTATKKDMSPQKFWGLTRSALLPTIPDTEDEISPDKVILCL
T1 sequence (Q16531 whole entry partner): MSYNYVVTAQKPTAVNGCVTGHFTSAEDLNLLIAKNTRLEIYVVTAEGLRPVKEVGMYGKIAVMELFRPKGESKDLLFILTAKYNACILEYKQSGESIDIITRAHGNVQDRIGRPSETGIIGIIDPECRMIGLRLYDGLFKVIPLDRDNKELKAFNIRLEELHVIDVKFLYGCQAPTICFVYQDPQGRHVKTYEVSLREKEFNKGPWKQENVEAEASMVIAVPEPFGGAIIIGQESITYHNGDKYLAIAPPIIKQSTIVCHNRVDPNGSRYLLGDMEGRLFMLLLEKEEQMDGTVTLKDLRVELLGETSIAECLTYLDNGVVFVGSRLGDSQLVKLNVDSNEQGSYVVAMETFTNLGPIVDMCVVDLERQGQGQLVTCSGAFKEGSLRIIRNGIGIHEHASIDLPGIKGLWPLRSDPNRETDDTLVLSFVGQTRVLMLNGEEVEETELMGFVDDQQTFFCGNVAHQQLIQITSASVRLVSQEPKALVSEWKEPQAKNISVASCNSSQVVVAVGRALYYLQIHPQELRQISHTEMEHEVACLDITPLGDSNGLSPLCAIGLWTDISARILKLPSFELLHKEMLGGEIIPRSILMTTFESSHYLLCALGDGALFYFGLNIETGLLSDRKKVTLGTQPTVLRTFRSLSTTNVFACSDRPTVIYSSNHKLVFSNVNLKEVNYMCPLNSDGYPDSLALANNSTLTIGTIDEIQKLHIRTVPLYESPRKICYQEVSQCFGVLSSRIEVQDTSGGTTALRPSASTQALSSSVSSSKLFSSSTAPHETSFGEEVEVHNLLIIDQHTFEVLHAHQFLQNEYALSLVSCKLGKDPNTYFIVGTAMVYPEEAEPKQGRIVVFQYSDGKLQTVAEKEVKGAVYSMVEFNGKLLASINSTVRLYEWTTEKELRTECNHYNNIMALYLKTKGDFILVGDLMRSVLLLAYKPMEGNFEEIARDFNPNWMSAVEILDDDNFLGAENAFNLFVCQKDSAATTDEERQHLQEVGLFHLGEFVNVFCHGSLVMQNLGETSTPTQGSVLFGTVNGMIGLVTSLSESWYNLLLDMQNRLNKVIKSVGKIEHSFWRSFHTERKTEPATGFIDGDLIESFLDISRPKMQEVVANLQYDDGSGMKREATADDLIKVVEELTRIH

IKZF1 = molecular target: T2, IKZF1 (Homo sapiens, UniProt Q13422+Q96SW2); assay: Western-blot assay, substrate protein degradation in hPBMCs: IKZF1; settings: for IKZF1 substrate protein remaining %: compounds at 50 nM and 500 nM, 24 hours; for substrate protein remaining % IKZF1: 24 hours of compound treatment, 50 nM and 500 nM
T2 construct: effects of the compounds of the present disclosure on the expression of target proteins in cells; endogenous in cells; host or cells: human PBMCs (hPBMCs)
T2 sequence (Q13422 whole entry): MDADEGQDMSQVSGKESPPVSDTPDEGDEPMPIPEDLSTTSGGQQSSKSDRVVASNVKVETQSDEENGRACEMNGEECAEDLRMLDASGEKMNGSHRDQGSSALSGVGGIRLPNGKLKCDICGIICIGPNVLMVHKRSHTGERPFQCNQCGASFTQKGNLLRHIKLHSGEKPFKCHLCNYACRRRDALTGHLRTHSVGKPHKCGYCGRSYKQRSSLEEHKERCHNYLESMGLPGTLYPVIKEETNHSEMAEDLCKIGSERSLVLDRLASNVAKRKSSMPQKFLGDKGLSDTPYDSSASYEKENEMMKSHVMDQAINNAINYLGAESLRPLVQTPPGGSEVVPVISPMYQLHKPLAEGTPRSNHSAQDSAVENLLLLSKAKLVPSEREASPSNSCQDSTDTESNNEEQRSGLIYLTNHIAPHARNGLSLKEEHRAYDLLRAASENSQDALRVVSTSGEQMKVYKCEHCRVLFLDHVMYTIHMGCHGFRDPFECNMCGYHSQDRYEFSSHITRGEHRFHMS
T2 sequence (Q96SW2 whole entry): as the sequence (Q96SW2 whole entry) above
T2 sequence (Q16531 whole entry partner): as the sequence (Q16531 whole entry partner) above

IKZF2 = molecular target: T3, IKZF2 (Homo sapiens, UniProt Q96SW2+Q9UKS7); assay: Western-blot assay, substrate protein degradation in hPBMCs: IKZF2; settings: for IKZF2 substrate protein remaining %: compounds at 50 nM and 500 nM, 24 hours; for substrate protein remaining % IKZF2: 24 hours of compound treatment, 50 nM and 500 nM
T3 construct: effects of the compounds of the present disclosure on the expression of target proteins in cells; endogenous in cells; host or cells: human PBMCs (hPBMCs)
T3 sequence (Q9UKS7 whole entry): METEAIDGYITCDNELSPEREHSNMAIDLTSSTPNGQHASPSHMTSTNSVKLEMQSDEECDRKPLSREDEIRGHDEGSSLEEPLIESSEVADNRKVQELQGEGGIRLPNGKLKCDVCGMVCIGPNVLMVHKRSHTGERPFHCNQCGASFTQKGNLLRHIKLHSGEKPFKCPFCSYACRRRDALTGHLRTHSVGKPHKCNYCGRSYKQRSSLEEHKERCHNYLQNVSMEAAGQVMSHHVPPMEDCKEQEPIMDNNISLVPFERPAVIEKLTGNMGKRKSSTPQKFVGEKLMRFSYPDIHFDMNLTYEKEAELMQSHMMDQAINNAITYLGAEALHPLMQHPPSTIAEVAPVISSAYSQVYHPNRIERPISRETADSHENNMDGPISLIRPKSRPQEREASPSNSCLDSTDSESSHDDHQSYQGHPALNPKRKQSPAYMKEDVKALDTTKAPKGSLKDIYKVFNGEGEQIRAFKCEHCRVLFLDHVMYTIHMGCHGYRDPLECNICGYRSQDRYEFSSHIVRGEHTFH
T3 sequence (Q96SW2 whole entry): as the sequence (Q96SW2 whole entry) above
T3 sequence (Q16531 whole entry partner): as the sequence (Q16531 whole entry partner) above

IKZF3 = molecular target: T4, IKZF3 (Homo sapiens, UniProt Q96SW2+Q9UKT9); assay: Western-blot assay, substrate protein degradation in hPBMCs: IKZF3; settings: for IKZF3 substrate protein remaining %: compounds at 50 nM and 500 nM, 24 hours; for substrate protein remaining % IKZF3: 24 hours of compound treatment, 50 nM and 500 nM
T4 construct: effects of the compounds of the present disclosure on the expression of target proteins in cells; endogenous in cells; host or cells: human PBMCs (hPBMCs)
T4 sequence (Q9UKT9 whole entry): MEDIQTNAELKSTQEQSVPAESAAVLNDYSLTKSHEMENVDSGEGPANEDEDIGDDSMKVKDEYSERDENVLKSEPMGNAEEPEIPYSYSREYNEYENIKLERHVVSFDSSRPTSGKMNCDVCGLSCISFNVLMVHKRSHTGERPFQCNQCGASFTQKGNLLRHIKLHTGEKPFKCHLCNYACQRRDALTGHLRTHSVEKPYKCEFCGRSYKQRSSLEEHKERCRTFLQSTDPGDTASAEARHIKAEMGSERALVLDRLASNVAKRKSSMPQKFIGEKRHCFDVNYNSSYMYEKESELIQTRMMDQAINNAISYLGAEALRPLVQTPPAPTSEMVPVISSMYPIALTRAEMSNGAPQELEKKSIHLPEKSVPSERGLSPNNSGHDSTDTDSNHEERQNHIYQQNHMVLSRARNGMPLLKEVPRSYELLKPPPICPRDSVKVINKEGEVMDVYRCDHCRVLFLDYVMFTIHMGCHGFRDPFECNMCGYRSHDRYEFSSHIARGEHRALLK
T4 sequence (Q96SW2 whole entry): as the sequence (Q96SW2 whole entry) above
T4 sequence (Q16531 whole entry partner): as the sequence (Q16531 whole entry partner) above

CK1α = molecular target: T5, CK1α (Homo sapiens, UniProt P48729+Q96SW2); assay: Western-blot assay, substrate protein degradation in hPBMCs: CK1α; settings: for CK1α substrate protein remaining %: compounds at 50 nM and 500 nM, 24 hours; for substrate protein remaining % CK1α: 24 hours of compound treatment, 50 nM and 500 nM
T5 construct: effects of the compounds of the present disclosure on the expression of target proteins in cells; endogenous in cells; host or cells: human PBMCs (hPBMCs)
T5 sequence (P48729 whole entry): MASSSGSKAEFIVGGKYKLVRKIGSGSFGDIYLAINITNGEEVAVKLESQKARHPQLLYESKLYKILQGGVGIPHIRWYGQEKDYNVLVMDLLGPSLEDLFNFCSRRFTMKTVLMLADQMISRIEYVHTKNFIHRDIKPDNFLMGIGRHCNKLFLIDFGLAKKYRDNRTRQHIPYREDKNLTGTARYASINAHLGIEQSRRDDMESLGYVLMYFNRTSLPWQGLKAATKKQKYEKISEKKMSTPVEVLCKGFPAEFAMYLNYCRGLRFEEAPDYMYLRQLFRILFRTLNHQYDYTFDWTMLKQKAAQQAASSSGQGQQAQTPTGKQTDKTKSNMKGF
T5 sequence (Q96SW2 whole entry): as the sequence (Q96SW2 whole entry) above
T5 sequence (Q16531 whole entry partner): as the sequence (Q16531 whole entry partner) above

GSPT1 = molecular target: T6, GSPT1 (Homo sapiens, UniProt P15170+Q96SW2); assay: Western-blot assay, substrate protein degradation in hPBMCs: GSPT1; settings: for GSPT1 substrate protein remaining %: compounds at 50 nM and 500 nM, 24 hours; for substrate protein remaining % GSPT1: 24 hours of compound treatment, 50 nM and 500 nM
T6 construct: effects of the compounds of the present disclosure on the expression of target proteins in cells; endogenous in cells; host or cells: human PBMCs (hPBMCs)

Compound	WEE1 substrate protein remaining % (WEE1)	IKZF1 substrate protein remaining % (IKZF1)	IKZF2 substrate protein remaining % (IKZF2)	IKZF3 substrate protein remaining % (IKZF3)	CK1α substrate protein remaining % (CK1α)	GSPT1 substrate protein remaining % (GSPT1)	substrate protein remaining % WEE1 (WEE1)	substrate protein remaining % IKZF1 (IKZF1)	substrate protein remaining % IKZF2 (IKZF2)	substrate protein remaining % IKZF3 (IKZF3)	substrate protein remaining % CK1α (CK1α)	substrate protein remaining % GSPT1 (GSPT1)
O=C1CCN(N2C(=O)c3ccc(CN4CCC(c5cccc(F)c5Cl)CC4)cc3C2=O)C(=O)N1 [GT-06895, 5-((4-(2-chloro-3-fluorophenyl)piperidin-1-yl)methyl)-2-(2,4-dioxotetrahydropyrimidin-1(2H)-yl)isoindoline-1,3-dione]	B ("B" is defined as 80%< substrate protein remaining %≤ 100%)	A ("A" is defined as 0% ≤ substrate protein remaining % ≤ 80%)	B ("B" is defined as 80%< substrate protein remaining %≤ 100%)	B ("B" is defined as 80%< substrate protein remaining %≤ 100%)	B ("B" is defined as 80%< substrate protein remaining %≤ 100%)	B ("B" is defined as 80%< substrate protein remaining %≤ 100%)						
O=C1CCN(N2Cc3cc(CN4CCN(c5ccnc(Cl)c5Cl)CC4)ccc3C2=O)C(=O)N1 [GT-07169, 1-(5-((4-(2,3-dichloropyridin-4-yl)piperazin-1-yl)methyl)-1-oxoisoindolin-2-yl)dihydropyrimidine-2,4(1H,3H)-dione]	A ("A" is defined as 0% ≤ substrate protein remaining % ≤ 80%)	B ("B" is defined as 80%< substrate protein remaining %≤ 100%)	B ("B" is defined as 80%< substrate protein remaining %≤ 100%)	B ("B" is defined as 80%< substrate protein remaining %≤ 100%)	B ("B" is defined as 80%< substrate protein remaining %≤ 100%)	B ("B" is defined as 80%< substrate protein remaining %≤ 100%)						
O=C1CCN(N2C(=O)c3ccc(CN4CCN(c5cnnc(Cl)c5Cl)CC4)cc3C2=O)C(=O)N1 [GT-07035, 5-((4-(5,6-dichloropyridazin-4-yl)piperazin-1-yl)methyl)-2-(2,4-dioxotetrahydropyrimidin-1(2H)-yl)isoindoline-1,3-dione]	B ("B" is defined as 80%< substrate protein remaining %≤ 100%)	B ("B" is defined as 80%< substrate protein remaining %≤ 100%)	B ("B" is defined as 80%< substrate protein remaining %≤ 100%)	A ("A" is defined as 0% ≤ substrate protein remaining % ≤ 80%)	A ("A" is defined as 0% ≤ substrate protein remaining % ≤ 80%)	A ("A" is defined as 0% ≤ substrate protein remaining % ≤ 80%)						
O=C1CCN(N2C(=O)c3ccc(CN4CCN(c5ccnc(Cl)c5Br)CC4)cc3C2=O)C(=O)N1 [GT-07168, 5-((4-(3-bromo-2-chloropyridin-4-yl)piperazin-1-yl)methyl)-2-(2,4-dioxotetrahydropyrimidin-1(2H)-yl)isoindoline-1,3-dione]	B ("B" is defined as 80%< substrate protein remaining %≤ 100%)	B ("B" is defined as 80%< substrate protein remaining %≤ 100%)	A ("A" is defined as 0% ≤ substrate protein remaining % ≤ 80%)	B ("B" is defined as 80%< substrate protein remaining %≤ 100%)	B ("B" is defined as 80%< substrate protein remaining %≤ 100%)	A ("A" is defined as 0% ≤ substrate protein remaining % ≤ 80%)						
O=C1CCN(N2C(=O)c3ccc(CN4CCC(c5ccon5)CC4)cc3C2=O)C(=O)N1 [GT-07523, 2-(2,4-dioxotetrahydropyrimidin-1(2H)-yl)-5-((4-(isoxazol-3-yl)piperidin-1-yl)methyl)isoindoline-1,3-dione]							A (0% ≤ substrate protein remaining % ≤ 80%)	A (0% ≤ substrate protein remaining % ≤ 80%)	A (0% ≤ substrate protein remaining % ≤ 80%)	B (80%< substrate protein remaining %≤ 100%)	A (0% ≤ substrate protein remaining % ≤ 80%)	A (0% ≤ substrate protein remaining % ≤ 80%)
O=C1CCN(N2Cc3cc(CN4CCN(c5cc(Cl)nnc5Cl)CC4)ccc3C2=O)C(=O)N1 [GT-07030, 1-(5-((4-(3,6-dichloropyridazin-4-yl)piperazin-1-yl)methyl)-1-oxoisoindolin-2-yl)dihydropyrimidine-2,4(1H,3H)-dione]	B ("B" is defined as 80%< substrate protein remaining %≤ 100%)	B ("B" is defined as 80%< substrate protein remaining %≤ 100%)	A ("A" is defined as 0% ≤ substrate protein remaining % ≤ 80%)	B ("B" is defined as 80%< substrate protein remaining %≤ 100%)	B ("B" is defined as 80%< substrate protein remaining %≤ 100%)	B ("B" is defined as 80%< substrate protein remaining %≤ 100%)						
O=C1CCN(N2Cc3cc(CN4CCN(c5n[nH]c6cc(F)ccc56)CC4)ccc3C2=O)C(=O)N1 [GT-07545, 1-(5-((4-(6-fluoro-1H-indazol-3-yl)piperazin-1-yl)methyl)-1-oxoisoindolin-2-yl)dihydropyrimidine-2,4(1H,3H)-dione]							A (0% ≤ substrate protein remaining % ≤ 80%)	A (0% ≤ substrate protein remaining % ≤ 80%)	B (80%< substrate protein remaining %≤ 100%)	B (80%< substrate protein remaining %≤ 100%)	A (0% ≤ substrate protein remaining % ≤ 80%)	A (0% ≤ substrate protein remaining % ≤ 80%)
O=C1CCN(N2C(=O)c3ccc(CN4CCN(C(c5ccccc5)c5ccccc5)CC4)cc3C2=O)C(=O)N1 [GT-05267, 5-((4-benzhydrylpiperazin-1-yl)methyl)-2-(2,4-dioxotetrahydropyrimidin-1(2H)-yl)isoindoline-1,3-dione]	B ("B" is defined as 80%< substrate protein remaining %≤ 100%)	B ("B" is defined as 80%< substrate protein remaining %≤ 100%)	B ("B" is defined as 80%< substrate protein remaining %≤ 100%)	A ("A" is defined as 0% ≤ substrate protein remaining % ≤ 80%)	A ("A" is defined as 0% ≤ substrate protein remaining % ≤ 80%)	A ("A" is defined as 0% ≤ substrate protein remaining % ≤ 80%)						
O=C1CCN(N2C(=O)c3ccc(CN4CCC(c5ccoc5)CC4)cc3C2=O)C(=O)N1 [GT-07422, 2-(2,4-dioxotetrahydropyrimidin-1(2H)-yl)-5-((4-(furan-3-yl)piperidin-1-yl)methyl)isoindoline-1,3-dione]							B (80%< substrate protein remaining %≤ 100%)	B (80%< substrate protein remaining %≤ 100%)	B (80%< substrate protein remaining %≤ 100%)	B (80%< substrate protein remaining %≤ 100%)	A (0% ≤ substrate protein remaining % ≤ 80%)	A (0% ≤ substrate protein remaining % ≤ 80%)
